Test results reported in ChEMBL document CHEMBL3046680, “Evidence of stereoselective and segmental-dependant transport of chiral antidiabetic drug nateglinide along the rat small intestine: possible role of efflux transporters” (Med Chem Res, 2013).
One block for each compound: values may come before it.

Tests used:
[1] = (§1) Apparent permeability across basal to apical side of Sprague-Dawley Rattus norvegicus (rat) everted ileum sac at 1 mg/ml by HPLC method; type: ADME, tissue-based; details: Sprague-Dawley
[2] = (§2) Apparent permeability across basal to apical side of Sprague-Dawley Rattus norvegicus (rat) everted jejunum sac at 1 mg/ml by HPLC method; type: ADME, tissue-based; details: Sprague-Dawley
[3] = (§3) Apparent permeability across basal to apical side of Sprague-Dawley Rattus norvegicus (rat) everted duodenum sac at 1 mg/ml by HPLC method; type: ADME; details: Sprague-Dawley
[4] = (§4) Apparent permeability across apical to basal side of Sprague-Dawley Rattus norvegicus (rat) normal ileum sac at 1 mg/ml by HPLC method; type: ADME, tissue-based; details: Sprague-Dawley
[5] = (§5) Apparent permeability across apical to basal side of Sprague-Dawley Rattus norvegicus (rat) normal jejunum sac at 1 mg/ml by HPLC method; type: ADME, tissue-based; details: Sprague-Dawley
[6] = (§6) Apparent permeability across apical to basal side of Sprague-Dawley Rattus norvegicus (rat) normal duodenum sac at 1 mg/ml by HPLC method; type: ADME; details: Sprague-Dawley
[7] = (§7) Efflux Rattus norvegicus (rat)io of apparent permeability from basal to apical side over apical to basal side of Sprague-Dawley Rattus norvegicus (rat) ileum sac at 1 mg/ml by HPLC method; type: ADME, tissue-based; details: Sprague-Dawley
[8] = (§8) Efflux Rattus norvegicus (rat)io of apparent permeability from basal to apical side over apical to basal side of Sprague-Dawley Rattus norvegicus (rat) jejunum sac at 1 mg/ml by HPLC method; type: ADME, tissue-based; details: Sprague-Dawley
[9] = (§9) Efflux Rattus norvegicus (rat)io of apparent permeability from basal to apical side over apical to basal side of Sprague-Dawley Rattus norvegicus (rat) duodenum sac at 1 mg/ml by HPLC method; type: ADME; details: Sprague-Dawley
Ileum [10] = assay: as §1; type: ADME, tissue-based
Jejunum [11] = assay: as §2; type: ADME, tissue-based
Duodenum [12] = assay: as §3; type: ADME
Ileum [13] = assay: as §4; type: ADME, tissue-based
Jejunum [14] = assay: as §5; type: ADME, tissue-based
Duodenum [15] = assay: as §6; type: ADME
Ileum [16] = assay: as §7; type: ADME, tissue-based
Jejunum [17] = assay: as §8; type: ADME, tissue-based
Duodenum [18] = assay: as §9; type: ADME
[19] = Efflux Rattus norvegicus (rat)io of apparent permeability from basal to apical side over apical to basal side of Sprague-Dawley Rattus norvegicus (rat) duodenum sac at 500 ug/ml by HPLC method; type: ADME
[20] = Apparent permeability across basal to apical side of Sprague-Dawley Rattus norvegicus (rat) everted ileum sac at 500 ug/ml by HPLC method; type: ADME, tissue-based
[21] = Apparent permeability across basal to apical side of Sprague-Dawley Rattus norvegicus (rat) everted jejunum sac at 500 ug/ml by HPLC method; type: ADME, tissue-based
[22] = Apparent permeability across basal to apical side of Sprague-Dawley Rattus norvegicus (rat) everted duodenum sac at 500 ug/ml by HPLC method; type: ADME
[23] = Apparent permeability across apical to basal side of Sprague-Dawley Rattus norvegicus (rat) normal ileum sac at 500 ug/ml by HPLC method; type: ADME, tissue-based
[24] = Apparent permeability across apical to basal side of Sprague-Dawley Rattus norvegicus (rat) normal jejunum sac at 500 ug/ml by HPLC method; type: ADME, tissue-based
[25] = Apparent permeability across apical to basal side of Sprague-Dawley Rattus norvegicus (rat) normal duodenum sac at 500 ug/ml by HPLC method; type: ADME
[26] = Efflux Rattus norvegicus (rat)io of apparent permeability from basal to apical side over apical to basal side of Sprague-Dawley Rattus norvegicus (rat) […] sac at 500 ug/ml by HPLC method; type: ADME, tissue-based, Ileum
[27] = Efflux Rattus norvegicus (rat)io of apparent permeability from basal to apical side over apical to basal side of Sprague-Dawley Rattus norvegicus (rat) jejunum sac at 500 ug/ml by HPLC method; type: ADME, tissue-based
[28] = Oral bioavailability in Homo sapiens (human); type: ADME, organism-based; details: in vivo
[29] = Elimination half life in Homo sapiens (human); type: ADME, organism-based; details: in vivo, read-out: beta t1/2 (converted)
[30] = Dissociation constant, pKa of the compound; type: physicochemical
[31] = Tmax in Homo sapiens (human); type: ADME, organism-based; details: in vivo

Papp B→A at 1 mg/ml [1]: 590 ×10⁻⁶ cm/s | Papp B→A at 1 mg/ml [2]: 340 ×10⁻⁶ cm/s | Papp B→A at 1 mg/ml [3]: 350 ×10⁻⁶ cm/s | Papp A→B at 1 mg/ml [4]: 190 ×10⁻⁶ cm/s | Papp A→B at 1 mg/ml [5]: 230 ×10⁻⁶ cm/s | Papp A→B at 1 mg/ml [6]: 260 ×10⁻⁶ cm/s | efflux ratio at 1 mg/ml [7]: 3.1 | efflux ratio at 1 mg/ml [8]: 1.4 | efflux ratio at 1 mg/ml [9]: 1.3
SMILES: CC(C)[C@H]1CC[C@H](C(=O)N[C@H](Cc2ccccc2)C(=O)O)CC1 (racemic; form 1) [NATEGLINIDE]

Papp (Ileum [10]): 3.6 ×10⁻⁴ cm/s | Papp (Jejunum [11]): 3.6 ×10⁻⁴ cm/s | Papp (Duodenum [12]): 3.4 ×10⁻⁴ cm/s | Papp (Ileum [13]): 1.3 ×10⁻⁴ cm/s | Papp (Jejunum [14]): 2.2 ×10⁻⁴ cm/s | Papp (Duodenum [15]): 2.4 ×10⁻⁴ cm/s | Ratio (Ileum [16]): 3.5 | Ratio (Jejunum [17]): 1.5 | Ratio (Duodenum [18]): 1.4
SMILES: CC(C)[C@H]1CC[C@H](C(=O)N[C@H](Cc2ccccc2)C(=O)O)CC1 (racemic; form 2) [NATEGLINIDE]

efflux ratio at 500 ug/ml [19]: 1.4 | Papp B→A at 500 ug/ml [20]: 380 ×10⁻⁶ cm/s | Papp B→A at 500 ug/ml [21]: 220 ×10⁻⁶ cm/s | Papp B→A at 500 ug/ml [22]: 210 ×10⁻⁶ cm/s | Papp A→B at 500 ug/ml [23]: 100 ×10⁻⁶ cm/s | Papp A→B at 500 ug/ml [24]: 130 ×10⁻⁶ cm/s | Papp A→B at 500 ug/ml [25]: 140 ×10⁻⁶ cm/s | efflux ratio at 500 ug/ml [26]: 3.8 | efflux ratio at 500 ug/ml [27]: 1.7
SMILES: CC(C)[C@H]1CC[C@H](C(=O)N[C@@H](Cc2ccccc2)C(=O)O)CC1 [(S)-NATEGLINIDE]

bioavailability [28]: 70% | efflux ratio at 500 ug/ml [19]: 1.6 | Papp B→A at 500 ug/ml [20]: 440 ×10⁻⁶ cm/s | Papp B→A at 500 ug/ml [21]: 240 ×10⁻⁶ cm/s | Papp B→A at 500 ug/ml [22]: 250 ×10⁻⁶ cm/s | Papp A→B at 500 ug/ml [23]: 90 ×10⁻⁶ cm/s | Papp A→B at 500 ug/ml [24]: 120 ×10⁻⁶ cm/s | Papp A→B at 500 ug/ml [25]: 150 ×10⁻⁶ cm/s | efflux ratio at 500 ug/ml [26]: 4.8 | efflux ratio at 500 ug/ml [27]: 2 | half-life [29]: 84 min | pKa [30]: 3.1 | Tmax [31]: 30 min
SMILES: CC(C)[C@H]1CC[C@H](C(=O)N[C@H](Cc2ccccc2)C(=O)O)CC1 [NATEGLINIDE]
